Assay [1] concerns NAADP/Ca2+ signalling in Jurkat T cells. The assay is described as follows: Ca2+ signalling evoked by microinjection of NAADP in Jurkat T cells. It is filed as cell-based, human. As to conditions: for NAADP-mediated Ca2+ signalling: T-lymphocytes, summary statement. The protocol:
NAADP (final concentration 100 nM), IP3 (final concentration 4 μM), and BZ52 (final concentration 1 mM) were injected into single Jurkat T cells while [Ca^2+]i was analyzed by Ca^2+ imaging. Data are presented as mean±SEM (n=4 to 13).
Effect of NAADP-microinjection and co-injection with BZ52 (1 mM) on [Ca^2+]i in human Jurkat T-Lymphocytes. Upper panel: microinjection of 100 nM NAADP (arrow), middle panel: microinjection of the vehicle buffer (arrow), lower panel: co-microinjection of 100 nM NAADP plus 1 mM BZ52 (arrow).
The Jurkat T cells were loaded with fura-2/AM and kept in the dark at room temperature until use. Glass coverslips were coated first with BSA (5 mg/ml) and subsequently with poly-L-lysine (0.1 mg/ml). Small chamber slides consisting of a rubber O-ring were sealed on thin (0.1 mm) glass coverslips by silicon grease. Then, 60 μl buffer A containing 140 mM NaCl, 5 mM KCl, 1 mM MgSO4, 1 mM CaCl2, 1 mM NaH2PO4, 5.5 mM glucose, and 20 mM HEPES (pH 7.4), and 40 μl cell suspension (2*10^6 cells/ml) suspended in the same buffer were added into the small chamber and the coverslip was mounted on the stage of a fluorescence microscope (Leica DM IRE2).
Ratiometric Ca^2+ imaging was performed as described earlier. In brief, we used an Improvision imaging system (Heidelberg, Germany) built around the Leica microscope at 100-fold magnification. Illumination at 340 and 380 nm was carried out using a monochromator system (Polychromator IV, TILL Photonics, Graefelfing, Germany). Images were taken with a gray-scale CCD camera (type C4742-95-12ER; Hamamatsu, Enfield, United Kingdom; operated in 8-bit mode). The optimal relation of spatial to temporal resolution for the ratiometric measurements was obtained using a spatial resolution of 512×640 pixel, resulting in a pixel length of 129 nm/pixel (at 100-fold magnification). […]
Ratiometric Ca^2+ imaging—The cells were loaded with fura-2/AM and kept in the dark at room temperature until use. […] The coverslip with cells slightly attached to the BSA/poly-L-lysine coating was mounted on the stage of a fluorescence microscope (Leica DM IRE2). […]

The test system of assay [2] is T cell receptor/CD3 complex mediated Ca2+ signalling. Kind of assay: Ca2+ signalling evoked by crosslinking of CD3 in rat encephalitogenic (MBP-specific) T cells. As to conditions: for TCR/CD3-induced Ca2+ signalling: T-lymphocytes, summary statement. It is filed as cell-based. From the text: Assuming that the NAADP/Ca^2+ signalling system plays an important role in T cell receptor/CD3 mediated activation, one would expect an inhibitory effect of BZ 52 on stimulation of rat encephalitogenic CD4-positive T cells via CD3 crosslinking. Thus, Fura2-loaded rat encephalitogenic CD4-positive T cells (resting) were stimulated by anti-CD3 followed by crosslinking of the primary antibody (FIG. 11, black line). A rapid high increase of [Ca^2+]i followed by a briefly elevated sustained phase was observed.
Fura2-loaded rat T cells were analyzed for [Ca^2+]i by fluorimetry. First arrow indicates addition of anti-CD3 mAb, second arrow indicates addition of a crosslinking secondary antibody. In case of BZ 52 cells were preincubated with BZ 52 (500 μM) for 60 min at RT.
Resting rat T cells were loaded with fura2/AM and suspension measurements were carried out as described in [4]. Arrows indicate time point of addition of antibody or Ca^2+ solution. A, Addition of anti-CD3-mAb (1st arrow) and a crosslinking, secondary antibody (2nd arrow). B, Bar chart summarizing data from A (transient Ca^2+ peak and Ca^2+ plateau; mean±s.e.m, n=8-9). C, Under Ca^2+ free conditions the anti-CD3-mAb (1st arrow) and secondary crosslinking antiserum (2nd arrow) were added; then [Ca^2+] was increased to 1 mM (3rd arrow). D, Bar chart summarizing data from C (transient Ca^2+ release peak, Ca^2+ influx peak, Ca^2+ influx plateau and the difference between Ca^2+ influx peak and plateau (=Overshoot); mean±s.e.m, n=6-7). The negative controls are without stimulation by anti-CD3-mAb.
[Ca^2+]i was measured by using the fluorescent indicator Fura2/AM. In brief, 10^7 cells were loaded with Fura2/AM, and fluorescence was determined in batches of 1.5×10^6 cells with an Hitachi F-2000 fluorimeter at excitation and emission wavelengths of 340 and 380 nm (exc.) and 505 nm (em.), respectively. Measurements were carried out at 20° C. At the end of each single measurement maximal and minimal ratios were determined by addition of Triton X-100 and EGTA/Tris.

Each structure is given as a SMILES string.

Regarding `CCCCN(CCCC)C(=O)C[n+]1cccc(C(=O)O)c1` [BZ52, 3-Carboxy-1-dibutylcarbamoylmethyl-pyridinium], the “NAADP-mediated Ca2+ signalling” value in assay [1] is recorded as “efficiently inhibited”. Also, the “effect of NAADP on Ca2+ signal (peak and plateau)” value in assay [1] (co-injection of BZ52 1 mM with NAADP 100 nM) is given as “almost completely antagonized”. Moreover, the “TCR/CD3-induced Ca2+ signalling” value in assay [2] is listed as “efficiently inhibited”. Also, the “Ca2+ signalling upon CD3-crosslinking” value in assay [2] (preincubation 60 min with 500 μM BZ52) is given as “significantly inhibited”.

Regarding `CCCCCCCCNC(=O)C[n+]1cccc(C(=O)O)c1.[Br-]` [BZ194, 3-Carboxy-1-Octylcarbamoylmethyl-Pyridinium], the “NAADP-mediated Ca2+ signalling” value in assay [1] is “efficiently inhibited”. Besides, the “TCR/CD3 complex mediated Ca2+ signalling” value in assay [2] (MBP-specific rat T cell suspensions, standard and Ca2+-free/Ca2+-reintroduction protocol) is reported as “partially blocked”. The “TCR/CD3-induced Ca2+ signalling” value in assay [2] is “efficiently inhibited”. Also, in assay [2] (both protocols, MBP-specific rat T cells), the “sustained Ca2+ signalling” value is on record as “almost completely abolished”.

The record behind these values is US20070105810A1, “THERAPEUTICS” (priority 2003, published 2007).
